Data as given in patent US11814445B2, “Cyclic polypeptides for PCSK9 inhibition” (Ra Pharmaceuticals, Inc., priority 2018, dated 2023).
Numbered stars: 1 amine (or outer) side, 2 acyl side, 3 side chain; on linkers, the order of the positions; unused ones are H or OH. Bridge positions count the residues as written; N and C are the ends. Square brackets hold non-standard residues; d marks the D form. Peptide text beside a SMILES is read from it. Phe(4-tBu) = CC(C)(C)c1ccc(C[C@H](N)C(=O)O)cc1; Trp(5-F) = N[C@@H](Cc1c[nH]c2ccc(F)cc12)C(=O)O; X1 = O=C(CCSCc1cccc(CSCCN[*:1])c1)[*:2]; 2Nal = N[C@@H](Cc1ccc2ccccc2c1)C(=O)O; mXylylene = c1cc(C[*:1])cc(C[*:2])c1; Bta = N[C@@H](Cc1csc2ccccc12)C(=O)O; hCha = N[C@@H](CCC1CCCCC1)C(=O)O; Cha = N[C@@H](CC1CCCCC1)C(=O)O; Pip = O=C(O)[C@@H]1CCCCN1; Mpa = O=C(O)CCS

Columns and labels:
Format in all cases: binding
[1] = molecular target: human PCSK9 / human LDLR EGFa domain (Homo sapiens, UniProt Q8NBP7); experiment: TR-FRET assay of inhibition of the PCSK9-LDLR protein-protein interaction; settings: 20 nM human PCSK9, 20 nM human LDLR EGFa domain, 2 hours room temperature
human PCSK9 / human LDLR EGFa domain, sequence (Q8NBP7 153-692): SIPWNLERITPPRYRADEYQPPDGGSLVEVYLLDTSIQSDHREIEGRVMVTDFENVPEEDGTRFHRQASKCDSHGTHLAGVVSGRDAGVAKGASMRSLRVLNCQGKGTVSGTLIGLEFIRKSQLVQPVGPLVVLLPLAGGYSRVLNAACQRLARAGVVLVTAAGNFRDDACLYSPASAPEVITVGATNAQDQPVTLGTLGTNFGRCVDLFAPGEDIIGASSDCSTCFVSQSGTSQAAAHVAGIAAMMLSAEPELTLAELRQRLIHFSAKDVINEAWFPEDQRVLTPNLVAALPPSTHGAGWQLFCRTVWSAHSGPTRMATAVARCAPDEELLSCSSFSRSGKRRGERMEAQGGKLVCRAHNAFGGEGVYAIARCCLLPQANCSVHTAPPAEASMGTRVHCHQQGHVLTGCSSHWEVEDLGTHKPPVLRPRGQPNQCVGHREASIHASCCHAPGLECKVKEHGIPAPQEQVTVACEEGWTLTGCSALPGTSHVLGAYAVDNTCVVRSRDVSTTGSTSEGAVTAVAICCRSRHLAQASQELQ
Outline: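 Half-maximal inhibitory concentrations came from 4-parameter fits of dose-response data. Proteins: biotinylated PCSK9, His-tagged LDLR EGFa, 20 nM each; labels 5 nM; 2 h, room temperature; buffer 50 mM HEPES, 150 mM NaCl, 5 mM CaCl2.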

[2] = molecular target: T1, PCSK9 (Homo sapiens, UniProt Q8NBP7); experiment: PCSK9 Alexa FRET Standard assay (displacement of AlexaFluor647 tagged cyclic peptide Reagent A); settings: 0.5 nM PCSK9, 20 nM AF cyclic peptide Reagent A
T1 construct: biotin (biotinylated)
T1 sequence (Q8NBP7 153-692): as above
Method: A solution containing 1 nM biotinylated PCSK9+2.5 nM Lance Streptavidin Europium (Strep-Eu) was made in 50 mM HEPES pH 7.4, 0.15 M NaCl, 5 mM CaCl2), 0.01% BSA, and 0.01% Surfactant P20. A separate solution containing 40 nM of the AlexaFluor tagged cyclic peptide was made in the same buffer system. An Echo was used to transfer 0.750 ul of compound to an assay plate followed by the addition of 15 ul of PCSK9+Stept-Eu and 15 ul of AF peptide. The final assay volume was 30.750 ul containing 0.5 nM PCSK9, 1.25 nM Strep-Eu, and 20 nM AF cyclic peptide. The reaction was incubated at room temperature for at least two hours prior to fluorescence measurements using an Envision Multilabel Reader. IC50 values were determined by fitting data to a sigmoidal dose-response curve using nonlinear regression. Ki was then calculated from the IC50 and the KD of AF cyclic peptide. Counts (B-counts) of the europium-labeled PCSK9 were followed to observe if compounds were […]. A fall off of the B-counts likely indicated a false positive of inhibition. Data from this procedure was reported as “A=‘numerical value’ (nanomolar)”

[3] = molecular target: T1, PCSK9; experiment: PCSK9 Alexa FRET Plus assay (displacement of AlexaFluor647 tagged cyclic peptide Reagent B); settings: 0.5 nM PCSK9, 960 nM AF cyclic peptide Reagent B
Method: A solution containing 1 nM biotinylated PCSK9+2.5 nM Lance Streptavidin Europium (Strep-Eu) was made in 50 mM HEPES pH 7.4, 0.15 M NaCl, 5 mM CaCl2), 0.01% BSA, and 0.01% Surfactant P20. A separate solution containing 1920 nM of the AlexaFluor tagged cyclic peptide was made in the same buffer system. An Echo was used to transfer 0.075 ul of compound plus 0.675 ul of DMSO to each well of an assay plate followed by the addition of 15 ul of PCSK9+Stept-Eu and 15 ul of AF peptide. The final assay volume was 30.750 ul containing 0.5 nM PCSK9, 1.25 nM Strep-Eu, and 960 nM AF cyclic peptide. The reaction was incubated at room temperature for at least two hours prior to fluorescence measurements using an Envision Multilabel Reader. IC50 values were determined by fitting data to a sigmoidal dose-response curve using nonlinear regression. Ki was then calculated from the IC50 and the KD of AF cyclic peptide. Counts (B-counts) of the europium-labeled PCSK9 were followed to observe if compounds were adversely affecting PCSK9. A fall off of the B-counts likely indicated a false positive of inhibition. Data from this procedure was reported as “P=‘numerical value’ (nanomolar)”

| Structure (SMILES) | IC50 [1] [nM] | IC50 [2] [nM] | IC50 [3] [nM] |
| --- | --- | --- | --- |
| COc1ccc(C[C@@H]2NC(=O)[C@H]([C@@H](C)O)NC(=O)[C@H]3C[C@@H](F)CN3C(=O)[C@H]3Cc4cn(c5ccc(F)cc45)Cc4cn(nn4)-c4cc(cc(c4)CSCCC(=O)N[C@@H](C)C(=O)N[C@H](C)C(=O)N[C@@H](Cc4c[nH]c5ccc(F)cc45)C(=O)N3)CSCCNC(=O)[C@]3(C)CCCN3C2=O)cc1 [Compound 130] | – | 100 to 1000 | 100 to 500 |
| C[C@@H]1NC(=O)CCSCc2cccc(c2)CSCCNC(=O)[C@@H]2CCCN2C(=O)[C@H](Cc2ccccc2)NC(=O)[C@H](C)NC(=O)[C@@H]2CCCN2C(=O)[C@H](Cc2c[nH]c3ccc(F)cc23)NC(=O)[C@H](Cc2c[nH]c3ccc(F)cc23)NC(=O)[C@@H](C)NC1=O [Compound 062] (cyclo(AFP[X1]A[dA][Trp(5-F)][Trp(5-F)]P)) | 1 to 100 | 100 to 1000 | 1 to 100 |
| COc1ccc(C[C@@H]2NC(=O)[C@H]([C@@H](C)OC)NC(=O)[C@H]3CCCN3C(=O)[C@H]3Cc4cn(c5ccc(F)cc45)Cc4cn(nn4)-c4cc(cc(c4)CSCCC(=O)N[C@@H](C)C(=O)N[C@H](C)C(=O)N[C@@H](Cc4c[nH]c5ccc(F)cc45)C(=O)N3)CSCCNC(=O)[C@]3(C)CCCN3C2=O)cc1 [Compound 131] | – | 1 to 100 | 1 to 100 |

Second part, the compound after the results:

| IC50 [1] [nM] | IC50 [2] [nM] | IC50 [3] [nM] | Structure (SMILES) |
| --- | --- | --- | --- |
| 1 to 100 | 1 to 100 | 1 to 100 | C[C@@H]1NC(=O)[C@@H]2CCCN2C(=O)[C@H](Cc2csc3ccccc23)NC(=O)[C@H](Cc2c[nH]c3ccc(F)cc23)NC(=O)CNC(=O)[C@H](CCCCN)NC(=O)CCSCc2cccc(c2)CSC[C@@H](C(N)=O)NC(=O)[C@@H]2CCCN2C(=O)[C@H](Cc2ccc(O)cc2)NC1=O [Compound 024] ([Mpa]KG[Trp(5-F)][Bta]PAYPC-NH2; linker 1-10 via mXylylene) |
| 1 to 100 | 1 to 100 | 1 to 100 | C[C@@H]1NC(=O)[C@@H]2CCCN2C(=O)[C@H](Cc2ccc(C(C)(C)C)cc2)NC(=O)[C@H](Cc2c[nH]c3ccc(F)cc23)NC(=O)CNC(=O)[C@H](CCCCN)NC(=O)CCSCc2cccc(c2)CSC[C@@H](C(N)=O)NC(=O)[C@@H]2CCCN2C(=O)[C@H](Cc2ccc(O)cc2)NC1=O [Compound 016] ([Mpa]KG[Trp(5-F)][Phe(4-tBu)]PAYPC-NH2; linker 1-10 via mXylylene) |
| 1 to 100 | 1 to 100 | 1 to 100 | C[C@@H]1NC(=O)CCSCc2cccc(c2)CSCCNC(=O)[C@@H]2CCCN2C(=O)[C@H](Cc2ccc3ccccc3c2)NC(=O)[C@H](C)NC(=O)[C@@H]2CCCCN2C(=O)[C@H](Cc2c[nH]c3ccc(F)cc23)NC(=O)[C@H](Cc2c[nH]c3ccc(F)cc23)NC(=O)[C@@H](C)NC1=O [Compound 089] (cyclo([2Nal]P[X1]A[dA][Trp(5-F)][Trp(5-F)][Pip]A)) |
| 1 to 100 | 1 to 100 | 100 to 500 | C[C@@H]1NC(=O)[C@@H]2CCCN2C(=O)[C@H](CCC2CCCCC2)NC(=O)[C@H](Cc2c[nH]c3ccc(F)cc23)NC(=O)CNC(=O)[C@H](CCCCN)NC(=O)CCSCc2cccc(c2)CSC[C@@H](C(N)=O)NC(=O)[C@@H]2CCCN2C(=O)[C@H](Cc2ccc(O)cc2)NC1=O [Compound 026] ([Mpa]KG[Trp(5-F)][hCha]PAYPC-NH2; linker 1-10 via mXylylene) |
| 1 to 100 | 1 to 100 | 1 to 100 | C[C@@H]1NC(=O)[C@@H]2CCCN2C(=O)[C@H](CC2CCCCC2)NC(=O)[C@H](Cc2c[nH]c3ccc(F)cc23)NC(=O)CNC(=O)[C@H](CCCCN)NC(=O)CCSCc2cccc(c2)CSC[C@@H](C(N)=O)NC(=O)[C@@H]2CCCN2C(=O)[C@H](Cc2ccc(O)cc2)NC1=O [Compound 025] ([Mpa]KG[Trp(5-F)][Cha]PAYPC-NH2; linker 1-10 via mXylylene) |
